Values of other authors as cited in patent US20040047946A1, “Methods and formulations useful for lowering the cholesterol content of egg yolk” (Kapac, LLC, priority 2002, published 2004).

Assays:
chickens = chickens fed 2% and 4% sitosterol emulsified with carboxymethyl cellulose
hens = hens fed 0.0265% lovastatin for 35 days

## CC[C@H](CC[C@@H](C)[C@H]1CC[C@H]2[C@@H]3CC=C4C[C@@H](O)CC[C@]4(C)[C@H]3CC[C@]12C)C(C)C [sitosterol]
chickens
  cholesterol and total sterol content of the egg: significant reduction
  level of egg yolk sitosterol: increased

## CC[C@H](C)C(=O)O[C@H]1C[C@@H](C)C=C2C=C[C@H](C)[C@H](CC[C@@H]3C[C@@H](O)CC(=O)O3)[C@H]21 [lovastatin]
hens
  less cholesterol in eggs than those from hens that received only a corn-soybean diet: 15%
